Test results published in publication PMC9834664, “Linking medicinal cannabis to autotaxin–lysophosphatidic acid signaling” (Life Science Alliance, 2023).
“Also recorded” adds a separate entry of the source.

How the values were obtained:
ATX-β [1] = target: T1, ATX-β (Homo sapiens, UniProt Q13822); assay: End-point choline release assay, relative inhibition by cannabinoids; type: biochemical; details: 10 µM compound; for inhibition of ATX-β catalysis: LPC 18:1 200 µM; for ANOVA comparison with CTRL, ATX-β inhibition: significance threshold P 0.005
T1 construct: made in house; host or cells: HEK293-Flp-In cells, protein purified from the culture medium
Protocol: (§1) We first set out to validate the hypothesis that cannabinoids might bind ATX to modulate its catalytic function. For this, we used various cannabinoids (Fig 1A) at a fixed concentration of 10 µM for each compound in our biochemical validation with LPC 18:1 (200 µM) as substrates in an end-point assay for ATX-β (UniProt ID: Q13822-1) and ATX-γ (UniProt ID: Q13822-3) (Fig 1B and C). […] In addition, we can exclude interference of the cannabinoid compounds in our enzymatically coupled assay, as no difference is detectable in the absence of ATX and LPC (Fig S1B), performed in the presence of choline.
(§2) ATX lysophospholipase D activity was measured using choline release from LPC 18:1 and LPC 16:0 with a choline quantification kit ([Hausmann et al, 2016]) (Fig S6D). 30 nM ATX-β or ATX-γ was incubated with 200 µM LPC 18:1 or LPC 16:0 in a final volume of 100 µl buffer, which contained 50 mM Tris–HCl (pH 8.5) and 150 mM NaCl. The LPC solution was obtained by evaporating a commercial LPC chloroform solution directly in a 1.5-ml Eppendorf tube under vacuum. The dried LPC was then resuspended in water to obtain the mentioned concentration and incubated at 37°C on a shaker for 5–10 min before addition to the microplate. The cannabinoid solutions were prepared from a stock solution in ethanol or other organic solvents. After initial evaporation and/or dilution to obtain the highest concentration mentioned in the assay figure, a twofold dilution was performed in Eppendorf tubes. All the compounds were dissolved in 100% ethanol as a vehicle.
(§3) The experiments for determining relative inhibition for various cannabinoids were performed at 37°C by adding 10 µM of the cannabinoid or endocannabinoid mentioned. Released choline was detected, and the enzyme activity was determined by measuring fluorescence at λex/λem = 540/590 nm in 96-well plates, every 60 s for 50 min minimum using a CLARIOstar plate reader (BMG Labtech). Absolute values were taken at 25 min after visual inspection, and the 0-min baselines were subtracted to account for compound differences. The relative inhibition values were determined using the normalize method in GraphPad Prism (GraphPad Software, Inc.). Measurements have been performed in triplicate with three different protein preparations. All the compounds were controlled for interference of fluorescence and inhibition in the same assay conditions but in the absence of ATX and replacing LPC with choline.

ATX-γ [2] = target: T2, ATX-γ (Homo sapiens, UniProt Q13822); assay: as above; type: biochemical; details: 10 µM compound; for inhibition of ATX-γ catalysis: LPC 18:1 200 µM; for ANOVA comparison with CTRL, ATX-γ inhibition: significance threshold P 0.005
T2 construct: made in house; host or cells: HEK293-Flp-In cells, protein purified from the culture medium
Protocol: as §1, §2, §3

[3] = tested on: LPA1 receptor internalization in HA/LPA1-transfected HeLa cells; assay: hLPA1 receptor internalization assay; type: cell-based, human
CB1 = details: cited from earlier work
CB2 = details: cited from earlier work
ATX-γ [4] = target: T2, ATX-γ; assay: Mode of inhibition analysis with increasing LPC 18:1; type: biochemical; set-up: Vmax: unit not given here
[5] = ref Hunault et al, 2008, cited from earlier work
ATX-β [6] = target: T1, ATX-β; assay: Dose–response choline release assay; type: biochemical; details: LPC 18:1
Protocol: (§4) ATX lysophospholipase D activity was measured using choline release from LPC 18:1 and LPC 16:0 with a choline quantification kit ([Hausmann et al, 2016]). 30 nM ATX-β or ATX-γ was incubated with 200 µM LPC 18:1 or LPC 16:0 in a final volume of 100 µl buffer, which contained 50 mM Tris–HCl (pH 8.5) and 150 mM NaCl. The LPC solution was obtained by evaporating a commercial LPC chloroform solution directly in a 1.5-ml Eppendorf tube under vacuum. The dried LPC was then resuspended in water to obtain the mentioned concentration and incubated at 37°C on a shaker for 5–10 min before addition to the microplate.
(§5) The experiment for determining apparent EC50 for various cannabinoids was performed at 37°C by adding the cannabinoid in a serial twofold dilution for each concentration. The cannabinoid solutions were prepared from a stock solution in ethanol or other organic solvents. After initial evaporation and/or dilution to obtain the highest concentration mentioned in the assay figure, a twofold dilution was performed in Eppendorf tubes. All the compounds were dissolved in 100% ethanol as a vehicle. […] For CBN, 5-DMH-CBD, and CBD, the starting concentration was 50 µM, 150 µM, and 2 mM, respectively. Released choline was detected, and the enzyme activity was determined by measuring fluorescence at λex/λem = 540/590 nm in 96-well plates, every 60 s for 50 min minimum using a CLARIOstar plate reader (BMG Labtech). Initial velocities were taken between 19 and 31 min after visual inspection. The apparent EC50 values were determined using the non-linear regression analysis method (fit: [inhibitor] versus response [three parameter]) in GraphPad Prism (GraphPad Software, Inc.). However, it should be mentioned that the relative concentrations of the different lipids/inhibitors in their physical form as micelles, liposomes, protein-bound, or aggregates are unknown ([Carman et al, 1995]). These uncertainties are widely known, and we provide here an apparent EC50 for consideration. Measurements have been performed in triplicate with three different protein preparations. […]

ATX-γ [7] = target: T2, ATX-γ; assay: Dose–response choline release assay; type: biochemical; details: LPC 18:1
Protocol: as §4, §5

[8] = no reference given; cited from earlier work

Q: With `CCCCC/C=C\C/C=C\C/C=C\C/C=C\CCCC(=O)NCCO` [anandamide] as the molecule, how does the “inhibition of ATX-β catalysis” value (ATX-β [1]) read?
A: did not affect the catalysis

Q: What about the “ANOVA comparison with CTRL, ATX-β inhibition” value (ATX-β [1]) of the same molecule?
A: not significantly inhibited

Q: And the “inhibition of ATX-γ catalysis” value (ATX-γ [2])?
A: did not affect the catalysis

Q: And the “ANOVA comparison with CTRL, ATX-γ inhibition” value (ATX-γ [2])?
A: not significantly inhibited

Q: What does the source list for `CCCCCc1cc(O)c2c(c1)OC(C)(C)C1=C2C[C@H](C)CC1` [6a10aTHC, 9(R)-Δ6a,10a-THC]?
A: inhibition of ATX-β catalysis (ATX-β [1]): further increase in the magnitude of inhibition; ANOVA comparison with CTRL, ATX-β inhibition (ATX-β [1]): statistically significant differences; inhibition of ATX-γ catalysis (ATX-γ [2]): further increase in the magnitude of inhibition

Q: Which “inhibition of ATX-β catalysis” value (ATX-β [1]) does the source give for `CCCCCc1cc2c(c(O)c1C(=O)O)[C@@H]1C=C(C)CC[C@H]1C(C)(C)O2` [Tetrahydrocannabinolic acid, tetrahydrocannabinolic acid] here?
A: < 50%

Q: What about the “ANOVA comparison with CTRL, ATX-β inhibition” value (ATX-β [1]) of the same molecule?
A: statistically significant differences

Q: What about the “inhibition of ATX-γ catalysis” value (ATX-γ [2]) of the same molecule?
A: < 50%

Q: With lysophosphatidic acid [LPA] as the molecule, how does the LPA1 internalization ([3]; LPA treatment of cells (1 µM LPA 18:1)) read?
A: high LPA1 receptor internalization

Q: Which results are given for `C=C(C)[C@@H]1CCC(C)=C[C@H]1c1c(O)cc(CCCCC)cc1O` [CBD, cannabidiol]?
A: inhibition of ATX-β catalysis (ATX-β [1]): weak inhibition; ANOVA comparison with CTRL, ATX-β inhibition (ATX-β [1]): statistically significant differences; inhibition of ATX-γ catalysis (ATX-γ [2]): no observable inhibition

Q: For `CCCCC/C=C\C/C=C\C/C=C\C/C=C\CCCC(=O)OC(CO)CO` [2-AG, 2-arachidonoylglycerol], which “inhibition of ATX-β catalysis” value (ATX-β [1]) is on record?
A: did not affect the catalysis

Q: What about the “ANOVA comparison with CTRL, ATX-β inhibition” value (ATX-β [1]) of the same molecule?
A: not significantly inhibited

Q: What about the “inhibition of ATX-γ catalysis” value (ATX-γ [2]) of the same molecule?
A: did not affect the catalysis

Q: What about the “ANOVA comparison with CTRL, ATX-γ inhibition” value (ATX-γ [2]) of the same molecule?
A: not significantly inhibited

Q: Which results are given for `CCCCCn1cc(C(=O)c2cccc3ccccc23)c2ccccc21` [JWH018]?
A: Ki (CB1; CB1, ref Aung et al, 2000): 9 ± 8 nM; Ki (CB2; CB2, ref Aung et al, 2000): 2.9 ± 2.7 nM; inhibition of ATX-β catalysis (ATX-β [1]): did not influence the catalytic activity; ANOVA comparison with CTRL, ATX-β inhibition (ATX-β [1]): not significantly inhibited; inhibition of ATX-γ catalysis (ATX-γ [2]): did not influence the catalytic activity; ANOVA comparison with CTRL, ATX-γ inhibition (ATX-γ [2]): not significantly inhibited

Q: Which “binding to CB1” value (CB1; ref Pertwee, 2008) does the source give for `CCCCCc1cc(O)c2c(c1)OC(C)(C)[C@@H]1CCC(C)=C[C@@H]21` [THC, Δ^9-trans-tetrahydrocannabinol] here?
A: low nanomolar regime

Q: What about the “binding to CB2” value (CB2; ref Pertwee, 2008) of the same molecule?
A: low nanomolar regime

Q: What about the Vmax (ATX-γ [4]; 0.35 µM THC (8.5 without THC)) of the same molecule?
A: 7.3

Q: And the Km (ATX-γ [4]; 0.35 µM THC (10.1 without THC))?
A: 19.6 µM

Q: And the Vmax (ATX-γ [4]; 0.7 µM THC (8.5 without THC))?
A: 6.3

Q: And the Km (ATX-γ [4]; 0.7 µM THC (10.1 without THC))?
A: 29.9 µM

Q: And the Vmax (ATX-γ [4]; 1.4 µM THC (8.5 without THC))?
A: 5.0

Q: What about the Km (ATX-γ [4]; 1.4 µM THC (10.1 without THC)) of the same molecule?
A: 31.5 µM

Q: And the mode of inhibition (ATX-γ [4]; ATX-γ, LPC 18:1)?
A: mixed-type inhibition; also recorded: mixed-type inhibitor

Q: And the “inhibition of ATX-β catalysis” value (ATX-β [1])?
A: more than 50%

Q: And the “ANOVA comparison with CTRL, ATX-β inhibition” value (ATX-β [1])?
A: statistically significant differences

Q: What about the “inhibition of ATX-γ catalysis” value (ATX-γ [2]) of the same molecule?
A: more than 50%

Q: And the “mean THC peak in serum” value ([5]; 69.4-mg THC dose, SD = 106.8)?
A: 190.4 ng/mL

Q: And the “serum concentration of THC, lower end of range in molar units” value ([5]; after a 49.1-mg THC dose, equals 59 ng/ml)?
A: 190 nM

Q: What about the “serum concentration of THC, upper end of range in molar units” value ([5]; after a 49.1-mg THC dose, equals 421 ng/ml) of the same molecule?
A: 1300 nM

Q: What about the “magnitude of inhibition (maximum inhibition)” value (ATX-β [6]) of the same molecule?
A: around 60%

Q: And the type of inhibitor (ATX-β [6])?
A: partial inhibitor

Q: And the type of inhibitor (ATX-γ [7])?
A: partial inhibitor

Q: What about the “bound to plasma proteins” value [8] of the same molecule?
A: 95–97%

Q: What about the LPA1 internalization ([3]; 30 nM ATX, 150 µM LPC 18:1, 1 µM THC, paired t test P = 0.0008) of the same molecule?
A: significantly reduced LPA1 internalization; also recorded: reduced the number of endosomes internalized

Q: What about the LPA1 internalization ([3]; LPA in the presence of THC) of the same molecule?
A: LPA1 receptors were internalized

Q: What about the LPA1 internalization ([3]; THC alone (1 µM)) of the same molecule?
A: No internalization

Q: What about the “inhibition of ATX-LPA signaling (LPA1 internalization)” value ([3]; higher LPC concentration, 400 µM LPC, P = 0.0068) of the same molecule?
A: not abolished
